Experimental data from PubChem BioAssay AID248 (DTP/NCI, 2004).
Values joined by “and” are separate entries in the source; they are usually repeats but may differ in a detail not shown here. Identical values can stand only once. Toxic doses and inconclusive results are not listed. No stated cut-off is given here; in the data, active means T/C of 150% or more; inactive means T/C below 125%.

Tested on: L1210 leukemia ip in BDF1 mice, survival T/C
Experiment: NCI In Vivo Anticancer Drug Screen. Data for tumor model L1210 Leukemia (intraperitoneal) in B6D2F1 (BDF1) mice
Conditions: endpoint: mean survival time, higher = longer survival
Outline: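 Each compound was tested against a transplantable tumor grown in mice. The endpoint was survival, with treated animals benchmarked against vehicle controls as a simple ratio.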

[1] = dose: 100.0 mg/kg/injection, schedule: Q01DX001 (ip), vehicle: other
[2] = dose: 200.0 mg/kg/injection, schedule: Q01DX001 (ip), vehicle: other
[3] = dose: 100.0 mg/kg/injection, schedule: Q04DX002 (ip), vehicle: Klucel (hydroxypropylcellulose) (HPC)
[4] = dose: 200.0 mg/kg/injection, schedule: Q04DX002 (ip), vehicle: Klucel (hydroxypropylcellulose) (HPC)
[5] = dose: 400.0 mg/kg/injection, schedule: Q04DX002 (ip), vehicle: Klucel (hydroxypropylcellulose) (HPC)
[6] = dose: 100.0 mg/kg/injection, schedule: Q01DX001 (ip), vehicle: carboxymethylcellulose (CMC)
[7] = dose: 200.0 mg/kg/injection, schedule: Q01DX001 (ip), vehicle: carboxymethylcellulose (CMC)
[8] = dose: 6.25 mg/kg/injection, schedule: Q01DX009 (ip), vehicle: saline
[9] = dose: 12.5 mg/kg/injection, schedule: Q01DX009 (ip), vehicle: saline
[10] = dose: 25.0 mg/kg/injection, schedule: Q01DX005 (ip), vehicle: saline
[11] = dose: 25.0 mg/kg/injection, schedule: Q01DX009 (ip), vehicle: saline
[12] = dose: 400.0 mg/kg/injection, schedule: Q01DX001 (ip), vehicle: carboxymethylcellulose (CMC)
[13] = dose: 100.0 mg/kg/injection, schedule: Q01DX001 (ip), vehicle: saline
[14] = dose: 200.0 mg/kg/injection, schedule: Q01DX001 (ip), vehicle: saline

Measured: T/C

COC(=O)C(=C/C=C/c1cc(O)c(O)c(O)c1)C(=O)OC
inactive: dose: 50.0 mg/kg/injection, schedule: Q01DX001 (ip), vehicle: other 104 % of control | [1] 98 % of control | [2] 95 % of control

CC(C)(C)C(=O)CC(O)(C(F)(F)Cl)C(F)(F)Cl
inactive: dose: 100.0 mg/kg/injection, schedule: Q04DX003 (ip), vehicle: saline with Tween-80 107 % of control | dose: 200.0 mg/kg/injection, schedule: Q04DX003 (ip), vehicle: saline with Tween-80 91 % of control

C/C(=N\N=C(/C)c1ccccc1O)c1ccccc1O
inactive: dose: 100.0 mg/kg/injection, schedule: Q04DX002 (ip), vehicle: gum acacia 96 % of control | dose: 200.0 mg/kg/injection, schedule: Q04DX002 (ip), vehicle: gum acacia 93 % of control | dose: 400.0 mg/kg/injection, schedule: Q04DX002 (ip), vehicle: gum acacia 101 % of control

O=C(c1ccccc1)c1ccc(O)c2ncccc12
inactive: [3] 102 % of control | [4] 102 % of control | [5] 98 % of control

Cn1c(=O)c(=O)n(C)c2cc(Cl)c(Cl)cc21
inactive: [6] 94 % of control | [7] 105 % of control

CC#CC(=O)O
inactive: [8] 106 % of control | [9] 106 % of control | [10] 104 % of control | [11] 98 % of control and 100 % of control | dose: 25.0 mg/kg/injection, schedule: Q04DX002 (ip), vehicle: saline 95 % of control | dose: 50.0 mg/kg/injection, schedule: Q01DX005 (ip), vehicle: saline 97 % of control | dose: 50.0 mg/kg/injection, schedule: Q04DX002 (ip), vehicle: saline 102 % of control | dose: 100.0 mg/kg/injection, schedule: Q01DX005 (ip), vehicle: saline 93 % of control | dose: 100.0 mg/kg/injection, schedule: Q04DX002 (ip), vehicle: saline 104 % of control

CCOC(=O)C(C#N)C(C)CC#N (stereo not drawn)
inactive: dose: 100.0 mg/kg/injection, schedule: Q01DX009 (ip), vehicle: saline with Tween-80 119 % of control | dose: 200.0 mg/kg/injection, schedule: Q01DX009 (ip), vehicle: saline with Tween-80 117 % of control | dose: 400.0 mg/kg/injection, schedule: Q01DX009 (ip), vehicle: saline with Tween-80 108 % of control

CC1CC([O-])=N/[N+]1=C/c1ccc(N(C)C)cc1 (stereo not drawn)
inactive: dose: 80.0 mg/kg/injection, schedule: Q01DX001 (ip), vehicle: saline with Tween-80 98 % of control | dose: 160.0 mg/kg/injection, schedule: Q01DX001 (ip), vehicle: saline with Tween-80 98 % of control | dose: 320.0 mg/kg/injection, schedule: Q01DX001 (ip), vehicle: saline with Tween-80 92 % of control

COc1ccc(C(CC(C)=O)c2c(O)c3ccccc3oc2=O)cc1OC (stereo not drawn)
inactive: dose: 1.56 mg/kg/injection, schedule: Q01DX009 (ip), vehicle: water 102 % of control | dose: 3.12 mg/kg/injection, schedule: Q01DX009 (ip), vehicle: water 97 % of control | dose: 6.25 mg/kg/injection, schedule: Q01DX009 (ip), vehicle: water 98 % of control | dose: 12.5 mg/kg/injection, schedule: Q01DX009 (ip), vehicle: water 93 % of control | dose: 25.0 mg/kg/injection, schedule: Q01DX009 (ip), vehicle: water 93 % of control and 86 % of control

S=c1nc[nH]c2c1ncn2Cc1ccc(Cl)c(Cl)c1
inactive: [4] 94 % of control | [5] 108 % of control

CCCC/C(COC)=N\N=C(\CCOC)COC
inactive: [7] 94 % of control | [12] 94 % of control

C/C(=N/O)c1ccc2c(c1)/C(=N/O)c1ccccc1-2
inactive: [6] 109 % of control | [7] 94 % of control | [12] 93 % of control

CCCCC/C(=N/NC(N)=O)C(OC)OC
inactive: [1] 92 % of control | [2] 92 % of control | dose: 400.0 mg/kg/injection, schedule: Q01DX001 (ip), vehicle: other 97 % of control

CC(CC(=O)OCC(F)(F)C(F)(F)C(F)(F)C(F)F)CC(=O)OCC(F)(F)C(F)(F)C(F)(F)C(F)F
inactive: dose: 50.0 mg/kg/injection, schedule: Q01DX001 (ip), vehicle: carboxymethylcellulose (CMC) 96 % of control | [6] 100 % of control | [7] 96 % of control | [12] 91 % of control

O=C1OC(=O)C2C3C=CC3C12 (stereo not drawn)
inactive: [3] 95 % of control | [4] 100 % of control | [5] 92 % of control

CCc1cccc(CC)c1NC(=O)Nc1ccccc1F
inactive: dose: 100.0 mg/kg/injection, schedule: Q01DX009 (ip), vehicle: other 91 % of control | dose: 200.0 mg/kg/injection, schedule: Q01DX009 (ip), vehicle: other 102 % of control | dose: 400.0 mg/kg/injection, schedule: Q01DX009 (ip), vehicle: other 105 % of control

S=C=NC1CCC(CC2CCCCC2)CC1 (stereo not drawn)
inactive: dose: 25.0 mg/kg/injection, schedule: Q01DX009 (ip), vehicle: Klucel (hydroxypropylcellulose) (HPC) 105 % of control | dose: 50.0 mg/kg/injection, schedule: Q01DX009 (ip), vehicle: Klucel (hydroxypropylcellulose) (HPC) 94 % of control | dose: 100.0 mg/kg/injection, schedule: Q01DX009 (ip), vehicle: Klucel (hydroxypropylcellulose) (HPC) 93 % of control and 96 % of control | dose: 100.0 mg/kg/injection, schedule: Q04DX003 (ip), vehicle: Klucel (hydroxypropylcellulose) (HPC) 98 % of control | dose: 200.0 mg/kg/injection, schedule: Q04DX003 (ip), vehicle: Klucel (hydroxypropylcellulose) (HPC) 101 % of control | dose: 400.0 mg/kg/injection, schedule: Q04DX003 (ip), vehicle: Klucel (hydroxypropylcellulose) (HPC) 103 % of control

CC(=O)Nc1ccc2[nH]c(C)cc(=O)c2c1
inactive: dose: 100.0 mg/kg/injection, schedule: Q01DX009 (ip), vehicle: water 98 % of control | dose: 100.0 mg/kg/injection, schedule: Q04DX003 (ip), vehicle: water 110 % of control | dose: 200.0 mg/kg/injection, schedule: Q01DX009 (ip), vehicle: water 96 % of control | dose: 200.0 mg/kg/injection, schedule: Q04DX003 (ip), vehicle: water 110 % of control | dose: 400.0 mg/kg/injection, schedule: Q01DX009 (ip), vehicle: water 100 % of control | dose: 400.0 mg/kg/injection, schedule: Q04DX003 (ip), vehicle: water 107 % of control

CCCCCC1(C=O)C(=O)NC(=O)N1C (stereo not drawn)
inactive: [13] 102 % of control | [14] 93 % of control | dose: 400.0 mg/kg/injection, schedule: Q01DX001 (ip), vehicle: saline 87 % of control

CCCCCC(C)(C)O
inactive: [13] 96 % of control | dose: 100.0 mg/kg/injection, schedule: Q01DX009 (ip), vehicle: saline 97 % of control | dose: 187.0 mg/kg/injection, schedule: Q01DX001 (ip), vehicle: saline 103 % of control | [14] 98 % of control | dose: 200.0 mg/kg/injection, schedule: Q01DX009 (ip), vehicle: saline 101 % of control | dose: 267.0 mg/kg/injection, schedule: Q01DX001 (ip), vehicle: saline 97 % of control | dose: 600.0 mg/kg/injection, schedule: Q01DX001 (ip), vehicle: saline 92 % of control

COc1ccc(N=Cc2ccccc2O)cc1
inactive: dose: 100.0 mg/kg/injection, schedule: Q04DX003 (ip), vehicle: other 100 % of control | dose: 200.0 mg/kg/injection, schedule: Q04DX003 (ip), vehicle: other 96 % of control | dose: 400.0 mg/kg/injection, schedule: Q04DX003 (ip), vehicle: other 98 % of control

O=[N+]([O-])c1ccc(C[Se]c2ncnc3c2ccn3C2OC(CO)C(O)C2O)cc1 (stereo not drawn)
inactive: [8] 95 % of control | dose: 12.5 mg/kg/injection, schedule: Q01DX005 (ip), vehicle: saline 102 % of control | [9] 91 % of control | [10] 105 % of control | [11] 102 % of control

COC1OC2COC(c3ccccc3)OC2C(OC(=O)c2ccccc2)C1OC(=O)c1ccccc1 (stereo not drawn)
inactive: dose: 12.5 mg/kg/injection, schedule: Q04DX002 (ip), vehicle: Klucel (hydroxypropylcellulose) (HPC) 104 % of control | dose: 25.0 mg/kg/injection, schedule: Q04DX002 (ip), vehicle: Klucel (hydroxypropylcellulose) (HPC) 100 % of control | dose: 50.0 mg/kg/injection, schedule: Q04DX002 (ip), vehicle: Klucel (hydroxypropylcellulose) (HPC) 98 % of control

Cc1ccc(S(=O)(=O)NNS(=O)(=O)c2ccc(C)cc2)cc1
inactive: dose: 100.0 mg/kg/injection, schedule: Q01DX001 (ip), vehicle: Klucel (hydroxypropylcellulose) (HPC) 109 % of control | dose: 200.0 mg/kg/injection, schedule: Q01DX001 (ip), vehicle: Klucel (hydroxypropylcellulose) (HPC) 109 % of control
